# Measured values taken from patent US7611721B1, “Adjuvant combination formulations” (priority 2000, dated 2009).
# Several values for one entry are separate records, joined by “and”; a condition that tells them apart may be missing. Identical values can stand only once.
# Key:
# T1SP10MN(A) (+Cys) = assay: Reciprocal anti-T1SP10MN(A) (+Cys) serum IgG and subclass endpoint titers, Balb/c mice; type: in vivo; conditions: n=3 Balb/c
# Description: The protocols of Experiment 2 were followed, except that the HIV peptide contained a cysteine at amino acid position 17, and the mice (n=3 Balb/c) were immunized subcutaneously on days 0 and 21, and bled for serological evaluation on days −1 (the day before first immunization), 13, 20 and 28. […] The HIV peptide T1SP10MN(A) (+Cys) (26) contains a cysteine at amino acid position 17 and is 40 residues long. T1SP10MN(A) (+Cys) was purchased from Genosys Biotechnologies (The Woodlands, Tex.).
# Reciprocal anti-T1SP10MN(A) IgG endpoint titers were measured from individual mice and their geometric means (n=3 Balb/c) 28 days after initial immunization.
# The protocols of Experiment 6 were followed, except that mice (n=3 Balb/c) were immunized subcutaneously on days 0 and 32, and bled for serological evaluation on day 38.
# Reciprocal anti-T1SP10MN(A) (+Cys) IgG endpoint titers were measured from individual mice and their geometric means (n=3 Balb/c) 38 days after initial immunization.
# [1] = test system: P815 cells pulsed with HIVMN CTL epitope peptide; assay: CTL analysis of spleen cells (chromium release); type: cell-based; conditions: separate experiments; Balb/c mice immunized with peptide
# Procedure: FIG. 5 depicts the CTL activity of spleen cells isolated from mice seven days after secondary immunization. Spleen cells were harvested from groups of three Balb/c mice immunized on days 0 and 21 with 50 μg T1SP10MN(A) […] formulated with 50 μg MPL™ in 1% SE with or without 10 μg GM-CSF. Cells were cultured with the HIVMN CTL epitope peptide for seven days. IL-2 was added to the cultures for the last five days. Effector spleen cells were added to chromium-labelled P815 cells pulsed with HIVMN, another strain designated HIVIIIB or no peptide at the indicated ratios. Percent CTL activity was calculated as: […]
# The protocols of Experiment 6 were followed regarding immunization of mice. The CTL activity of spleen cells isolated from mice seven days after secondary immunization was assessed. MPL™ SE was formulated with 50 μg MPL™ in 1% SE, with or without 10 μg GM-CSF, plus 50 μg T1SP10MN(A) (+Cys).
# For CTL analysis, spleen cells were removed from immunized mice 14 days after primary, and seven days after secondary immunization. A protocol previously described (34) was essentially followed. […] Percent CTL activity was calculated as the percentage of chromium release using ((specific chromium release−spontaneous chromium release)/(maximal chromium release−spontaneous chromium release))×100. Chromium release was assessed after a six hour incubation period. […]
# spleen cells = assay: Spleen cell proliferation in response to RSV F protein; type: cell-based, Balb/c mice; conditions: Experiment 12; spleen cells 14 days post-secondary immunization; 2.5 μg/ml RSV F protein, 96 hours; normalized to ConA
# Procedure: Spleen cells were harvested at 14 days post-secondary immunization and were established in culture at a density of 5×10^5 cells. Cells were cultured for a total of 96 hours. ^3H-thymidine was added to cultures for the last 18 hours. Data are presented as a proliferation index normalized to cells stimulated in culture with ConA ([mean cpm Antigen/mean cpm ConA]−[mean cpm medium/mean cpm ConA])×100. As a result, cells cultured in medium have a background proliferation of 0.
# [2] = Experiment 6, immunized days 0 and 21, day 28
# [3] = Experiment 7, immunized days 0 and 32, day 38
substance,measurement,setting,value
3-O-deacylated monophosphoryl lipid A [MPL ™],Anti-HIV Peptide (+Cys) IgG1 GMT,T1SP10MN(A) (+Cys); [2],"84,978"
same,"Anti-HIV Peptide (+Cys) IgG1 endpoint titer, individual mice",T1SP10MN(A) (+Cys); [2],"23,249 and 155,199 and 170,071"
same,Anti-HIV Peptide (+Cys) IgG2a GMT,T1SP10MN(A) (+Cys); [2],"2,859"
same,"Anti-HIV Peptide (+Cys) IgG2a endpoint titer, individual mice",T1SP10MN(A) (+Cys); [2],"500 and 1,628 and 28,722"
same,Anti-HIV Peptide (+Cys) IgG2b GMT,T1SP10MN(A) (+Cys); [2],"2,906"
same,"Anti-HIV Peptide (+Cys) IgG2b endpoint titer, individual mice",T1SP10MN(A) (+Cys); [2],"500 and 1,102 and 44,531"
same,Anti-HIV Peptide (+Cys) IgG GMT,T1SP10MN(A) (+Cys); [2],"350,486"
same,"Anti-HIV Peptide (+Cys) IgG endpoint titer, individual mice",T1SP10MN(A) (+Cys); [2],"91,728 and 529,663 and 886,156"
same,Anti-HIV Peptide (+Cys) IgG1 GMT,T1SP10MN(A) (+Cys); [3],"115,544"
same,"Anti-HIV Peptide (+Cys) IgG1 endpoint titer, individual mice",T1SP10MN(A) (+Cys); [3],"148,818 and 90,380 and 114,686"
same,Anti-HIV Peptide (+Cys) IgG2a GMT,T1SP10MN(A) (+Cys); [3],"3,429"
same,"Anti-HIV Peptide (+Cys) IgG2a endpoint titer, individual mice",T1SP10MN(A) (+Cys); [3],"11,874 and 1,674 and 2,028"
same,Anti-HIV Peptide (+Cys) IgG2b GMT,T1SP10MN(A) (+Cys); [3],"4,980"
same,"Anti-HIV Peptide (+Cys) IgG2b endpoint titer, individual mice",T1SP10MN(A) (+Cys); [3],"9,685 and 3,605 and 3,538"
same,Anti-HIV Peptide (+Cys) IgG GMT,T1SP10MN(A) (+Cys); [3],"442,259"
same,"Anti-HIV Peptide (+Cys) IgG endpoint titer, individual mice",T1SP10MN(A) (+Cys); [3],"404,755 and 446,952 and 478,163"
same,Peptide-specific CTL responses,[1],< 30%
same,Normalized Proliferation Index,spleen cells,0.4
